Reference: patent publication US9750718B2, “Methods of treating hepatic fibrosis and associated diseases by regulating Rev-ERB activity” (The Charlotte-Mecklenburg Hospital Authority, priority 2012, dated 2017)

Legend:
[1] = system: CCl4-induced liver fibrosis; test: CCl4-induced liver fibrosis mouse model (herovici histology, qRT-PCR of whole liver); type: in vivo
Method: Male C57BL/6 mice (age 9 weeks) were injected intraperitoneally with carbon tetrachloride (CCl4) in sterile olive oil (1 μl CCl4/g body weight) twice a week for 5 weeks. Three weeks after initiation of CCl4 treatment, SR9009 (EMD Millipore, dissolved in DMSO) was administered 5 times a week at a dose of 0.1 mg/g body weight for two weeks. Mice were sacrificed 72 hours after the last dose of SR9009 and livers were harvested for further analysis. For histology studies, livers of the right and left lobes were fixed in 10% formalin, embedded in paraffin, sectioned, and stained with herovici to detect collagen deposition. For gene expression studies, total RNA was extracted from whole liver homogenates, and qRT-PCR performed to detect various markers, including αSMA, Col1α1, Col1α2, tenascin C, and connective tissue growth factor.

primary rat HSCs [2] = test: Adipogenesis in culture-activated primary HSCs (Oil Red O staining, qRT-PCR of adipogenic factors); type: cell-based
Method: (§1) A series of experiments were conducted to determine the functional role of Rev-erbα in HSC transdifferentiation. In these experiments, culture-activated primary rat HSCs and human LX-2 cells were used. To determine the effect of Rev-erbα on HSC transdifferentiation and contraction, cells were treated with a specific synthetic modulator, SR6452 (10 μM). mRNA and protein expression were determined by qRT-PCR and Western blot, respectively. Changes in cellular morphology, Rev-erb expression/localization and αSMA expression were observed by confocal microscopy. Additionally, cell contractility was assessed.
(§2) Primary rat HSCs were isolated by pronase/collagenase perfusion digestion followed by density gradient centrifugation with Optiprep. Media was replaced every other day to replenish Rev-erbα modulator SR6452, which was present at a 10 μM concentration. Cells were treated with MDIR mixture (IBMX, dexamethasone, insulin, rosiglitazone), TGFβ, or DMSO (vehicle). Some experiments were performed with the human HSC cell line, LX-2.
(§3) mRNA expression was normalized to 18S rRNA.
FIGS. 3A-B illustrates that modulation of Rev-erbα activity can regulate adipogenesis. Primary HSCs were culture-activated for 5 days (A) or 15 days (B). Cells were treated with vehicle (DMSO, open bar), or the Rev-erbα modulator SR6452 ([…], purple bar) for the days indicated. The medium was changed every 48 hrs. FIG. 3A provides a chart summarizing the amount of PPARγ, SREBP1, and Lep mRNA on day 5.

primary rat HSCs [3] = test: ECM gene expression by qRT-PCR in primary HSCs; type: cell-based; conditions: SR6452 10 μM, day Q to day 5 or day 9 to day 12
Method: as §1, §2, §3
FIGS. 4A-B illustrate that the Rev-erbα modulator SR6452 can suppress/decrease ECM gene expression. Primary rat HSCs were cultured from quiescence (day Q) to day 5 (FIG. 4A) or from day 9 to day 12 (FIG. 4B) and treated with Rev-erbα modulator SR6452. qRT-PCR was performed to determine ECM gene expression. DMSO was used as the vehicle control, while SR6452 was used as the Rev-erbα modulator.

Rev-erbα [4] = target: T1, Rev-erbα (Homo sapiens, UniProt P20393); conditions: cited from earlier work
T1 sequence (P20393 1-614): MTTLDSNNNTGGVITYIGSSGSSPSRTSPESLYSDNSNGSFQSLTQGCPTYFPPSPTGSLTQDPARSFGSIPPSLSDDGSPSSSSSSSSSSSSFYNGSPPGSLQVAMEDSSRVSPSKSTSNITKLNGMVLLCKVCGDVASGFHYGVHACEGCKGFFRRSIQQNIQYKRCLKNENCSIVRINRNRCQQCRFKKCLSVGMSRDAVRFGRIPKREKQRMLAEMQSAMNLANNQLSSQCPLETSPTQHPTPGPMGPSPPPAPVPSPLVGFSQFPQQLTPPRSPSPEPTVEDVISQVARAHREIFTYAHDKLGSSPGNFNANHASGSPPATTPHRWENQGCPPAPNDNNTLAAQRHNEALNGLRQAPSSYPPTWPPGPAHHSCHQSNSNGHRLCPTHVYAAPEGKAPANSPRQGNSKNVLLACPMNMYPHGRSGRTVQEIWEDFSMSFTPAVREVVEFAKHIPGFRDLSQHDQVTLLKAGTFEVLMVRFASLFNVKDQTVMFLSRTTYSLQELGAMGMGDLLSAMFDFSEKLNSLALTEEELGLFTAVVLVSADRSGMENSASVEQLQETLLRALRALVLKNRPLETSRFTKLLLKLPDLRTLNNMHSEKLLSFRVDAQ

LX-2 cells = test: Response of LX-2 cells to Rev-erb agonist, with or without Rev-erbα overexpression; type: cell-based, human
Method: Primary rat HSCs were isolated via standard pronase-collagenase digestion and subsequent density gradient centrifugation. LX-2 cells were treated with adipogenic mixture (MDI), 5 ng/ml of recombinant transforming growth factor-beta (TGFβ), or plated on Matrigel™ (growth condition which promotes HSC quiescence) for various time points. Gene expression was determined by RealTime PCR and Western blot. Immunocytochemistry followed by confocal microscopy was used to determine sub-cellular localization. A Rev-erb DNA binding domain (DBD) mutant was produced by standard molecular cloning. LX-2 cells were transfected with expression vectors or controls using Fugene®HD.

primary rat HSCs [5] = test: Cell contraction assay (collagen gel); type: cell-based; conditions: HSCs embedded in collagen gel, treated 48 hrs, contraction monitored after 72 hrs
Method: Primary rat HSCs (day 9, 2-5×10^6 cells/ml) were embedded in a collagen lattice per manufacturer's instructions. Cells were treated with synthetic Rev-erbα ligand SR6452. Collagen gel size change was imaged using a BioSpectrum Imaging System.
(§4) FIGS. 5A-D illustrate that Rev-erbα modulator SR6452 can regulate myofibroblast marker expression and HSC contraction. Primary rat HSCs were cultured from quiescence (day Q) to day 5 (FIG. 5A) or from day 9 to day 12 (FIG. 5B) and treated with Rev-erbα modulator SR6452. qRT-PCR was performed for myofibroblast gene expression. Samples were normalized with 18S rRNA. […] HSCs (day 5) were embedded in a collagen gel and treated as indicated for 48 hrs. Gels were then released from plastic surface and contraction monitored after 72 hrs. Materials used were DMSO (vehicle control), SR6452, Rev-erb modulator; and BDM (2,3-Butanedione monoxime), myosin inhibitor.

primary rat HSCs [6] = test: Myofibroblast marker expression and morphology (qRT-PCR, αSMA immunocytochemistry); type: cell-based
Method: as §1, §3
Prior to transfection, culture-activated HSCs (for varying days of activation) were seeded onto glass coverslips. Cells were fixed with 4% paraformaldehyde and stained with anti-αSMA antibody, a marker of HSC activation. Cells were imaged using a Zeiss confocal microscope. The fluorescence indicates Rev-erb or αSMA expression.
as §4

Rev-erbα [7] = test: Rev-erbα protein expression in HSCs under pro- and anti-fibrogenic factors (Western blot); type: cell-based, rat
Method: as §2
FIG. 2B show results from primary HSCs that were treated with pro-fibrogenic factor TGFβ (5 ng/ml) or myosin inhibitors blebbistatin (Bleb) or BDM (2,3-Butanedione monoxime) for 48 hrs. Cells were harvested for protein and Western blots performed to detect Rev-erbα.

[8] = qRT-PCR whole liver, CCl4 + SR9009 0.1 mg/g
[9] = SR6452 10 μM, mRNA by qRT-PCR, day 5

CCOC(=O)N1CCC(CN(Cc2ccc(Cl)cc2)Cc2ccc([N+](=O)[O-])s2)C1 (stereo not shown) [SR9009]
liver architecture and collagen deposition (herovici stain) ([1]; C57BL/6 mice, CCl4 5 weeks, SR9009 0.1 mg/g 5 times a week for two weeks): essentially normal liver architecture and amount of collagen deposition | CCl4-mediated liver fibrosis ([1]; mice, histological and expression data): effective reverses | Col1α1 expression in liver [1, 8]: down to almost normal levels | Col1α2 expression in liver [1, 8]: down to almost normal levels | αSMA expression in liver [1, 8]: down to almost normal levels

CC(C)(C)OC(=O)CN(Cc1ccc(Cl)cc1)Cc1ccc([N+](=O)[O-])s1 [SR6452, 1,1-Dimethylethyl-N-[(4-chlorophenyl)methyl]-N-[(5-nitro-2-thienyl)methyl]) glycinate]
lipid content in activated HSCs (primary rat HSCs [2]; SR6452 10 μM, Oil Red O, day 15): increased | PPARγ expression (primary rat HSCs [2]; [9]): up-regulated | SREBP1 expression (primary rat HSCs [2]; [9]): up-regulated | HSC adipogenesis (primary rat HSCs [2]; exposure of quiescent HSCs): promoted | Type I collagen expression (primary rat HSCs [3]): significantly down-regulated | fibronectin expression (primary rat HSCs [3]): significantly down-regulated | tenascin C expression (primary rat HSCs [3]): significantly down-regulated | recruitment of nuclear receptor co-repressor (NCoR) peptide to Rev-erbα (Rev-erbα [4]): enhances recruitment | EC50 (Rev-erbα [4]; read-out: EC50 (synthetic Rev-erb agonist)): 250 nM | response to Rev-erb agonist (LX-2 cells; LX-2 cells overexpressing Rev-erbα): sensitive | response to Rev-erb agonist (LX-2 cells; LX-2 cells without Rev-erbα overexpression): non-responsive | HSC contraction (primary rat HSCs [5]): impeded | major regulatory and structural genes controlling myofibroblast contraction (primary rat HSCs [6]; SR6452 10 μM, qRT-PCR normalized to 18S rRNA): repressive effects | cell morphology (primary rat HSCs [6]; day 9 HSCs treated 72 hrs, αSMA/DAPI immunocytochemistry): slightly rounded/folded cytoplasm with disoriented actin fibers | effect on HSC activation (primary rat HSCs [6]; overall conclusion of Example 1): suppressive effect

TGFβ
cytoplasmic Rev-erbα (Rev-erbα [7]; TGFβ treatment): stabilized | Rev-erbα protein expression (Rev-erbα [7]; Western blot, TGFβ 5 ng/ml 48 hrs, MDIR or matrigel through day 4): increased
